Data: the supplement of paper PMC6965134
± gives the standard deviation of the averaged measurements. Values belong to the molecule of their own block, whether it stands above or below them.

Experiment: TIMS collisional cross section (CCS, N2) of the lipid ion; higher = larger ion cross section
Conditions: ionization mode: negative, one isomer drawn
Protocol: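 Lipid extracts of human plasma (NIST SRM 1950), mouse liver or HeLa cells were separated by nanoflow C18 LC (30 min gradient) and analysed by TIMS-PASEF on a timsTOF Pro. Ion mobility was calibrated with the Agilent tuning mix (negative mode ions) and converted to collisional cross sections (Mason–Schamp, N2).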

[1] = sample type: Mouse Liver, ion (formula + adduct): [C39H72NO8P-H] 1-
[2] = sample type: Human plasma, ion (formula + adduct): [C43H74NO8P-H] 1-
[3] = sample type: Mouse Liver, ion (formula + adduct): [C43H74NO8P-H] 1-
[4] = sample type: Mouse Liver, ion (formula + adduct): [C45H82NO8P-H] 1-
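Also: lipids from MTBE extraction, five replicate injections per sample, 100 ms TIMS ramp spanning 0.6–1.95 Vs/cm², lipid identity assigned from PASEF MS/MS spectra.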

SMILES: CCCCCCCC/C=C\CCCCCCCC(=O)OCC(COP(=O)(O)OCCN)OC(=O)CCCCCCC/C=C\CCCCCCCC (stereo unspecified) [PE 18:1_18:1]
TIMS collisional cross section (sample type: Human plasma, ion (formula + adduct): [C41H78NO8P-H] 1-): 272.3 Å²

SMILES: CCCCC/C=C\C/C=C\CCCCCCCC(=O)O[C@H](COC(=O)CCCCCCC/C=C\CCCCCCCC)COP(=O)(O)OCCN [PE 18:1_18:2]
TIMS collisional cross section (sample type: Human plasma, ion (formula + adduct): [C41H76NO8P-H] 1-): 272 Å²

SMILES: CCCCC/C=C\C/C=C\CCCCCCCCCCCC(=O)O[C@H](COC(=O)CCCCCCC/C=C\CCCCCCCC)COP(=O)(O)OCCN [PE 18:1_22:2]
TIMS collisional cross section (sample type: Mouse Liver, ion (formula + adduct): [C45H84NO8P-H] 1-): 284.1 Å²

SMILES: CCCCC/C=C\C/C=C\CCCCCCCC(=O)OC[C@H](COP(=O)(O)OCCN)OC(=O)CCCCCCC/C=C\CCCCCC [PE 18:2_16:1@]
TIMS collisional cross section [1]: 264 Å²

SMILES: CCCCC/C=C\C/C=C\CCCCCCCC(=O)OC[C@H](COP(=O)(O)OCCN)OC(=O)CCCCCCC/C=C\CCCCCC [PE 18:2_16:1]
TIMS collisional cross section (sample type: Human plasma, ion (formula + adduct): [C39H72NO8P-H] 1-): 264.3 Å²
TIMS collisional cross section [1]: 264.3 Å²

SMILES: CCCCC/C=C\C/C=C\CCCCCCCC(=O)OCC(COP(=O)(O)OCCN)OC(=O)CCCCCCC/C=C\C/C=C\CCCCC (stereo unspecified) [PE 18:2_18:2]
TIMS collisional cross section (sample type: Human plasma, ion (formula + adduct): [C41H74NO8P-H] 1-): 268.8 Å²
TIMS collisional cross section (sample type: Mouse Liver, ion (formula + adduct): [C41H74NO8P-H] 1-): 268.8 Å²

SMILES: CC/C=C\C/C=C\C/C=C\C/C=C\CCCCC(=O)OC[C@H](COP(=O)(O)OCCN)OC(=O)CCCCCCCCCCCCCCCCC [PE 18:4_18:0@]
TIMS collisional cross section (sample type: Human plasma, ion (formula + adduct): [C41H74NO8P+AcO] 1-): 282.4 Å²

SMILES: CCCCC/C=C\C/C=C\C/C=C\C/C=C\CCCC(=O)O[C@H](COC(=O)CCCCCCCCCCCCCCCCCC)COP(=O)(O)OCCN [PE 19:0_20:4]
TIMS collisional cross section (sample type: Mouse Liver, ion (formula + adduct): [C44H80NO8P-H] 1-): 279.6 Å²

SMILES: CC/C=C\C/C=C\C/C=C\C/C=C\C/C=C\C/C=C\CCC(=O)O[C@H](COC(=O)CCCCCCCCC/C=C\CCCCCCCC)COP(=O)(O)OCCN [PE 20:1_22:6]
TIMS collisional cross section (sample type: Mouse Liver, ion (formula + adduct): [C47H80NO8P-H] 1-): 285.8 Å²

SMILES: CC/C=C\C/C=C\C/C=C\C/C=C\C/C=C\C/C=C\CCC(=O)O[C@H](COC(=O)CCCCCCCCC/C=C\C/C=C\CCCCC)COP(=O)(O)OCCN [PE 20:2_22:6]
TIMS collisional cross section (sample type: Mouse Liver, ion (formula + adduct): [C47H78NO8P-H] 1-): 283.4 Å²

SMILES: CCCCC/C=C\C/C=C\C/C=C\CCCCCCC(=O)OC[C@H](COP(=O)(O)OCCN)OC(=O)CCCCCCCCCCCCCCC [PE 20:3_16:0]
TIMS collisional cross section (sample type: Mouse Liver, ion (formula + adduct): [C41H76NO8P-H] 1-): 271.1 Å²

SMILES: CCCCC/C=C\C/C=C\C/C=C\CCCCCCC(=O)OC[C@H](COP(=O)(O)OCCN)OC(=O)CCCCCCCCCCCCCCCCC [PE 20:3_18:0]
TIMS collisional cross section (sample type: Mouse Liver, ion (formula + adduct): [C43H80NO8P-H] 1-): 277.3 Å²

SMILES: CCCCC/C=C\C/C=C\C/C=C\C/C=C\CCCC(=O)OC[C@H](COP(=O)(O)OCCN)OC(=O)CCCCCCCCCCCCC [PE 20:4_14:0]
TIMS collisional cross section (sample type: Mouse Liver, ion (formula + adduct): [C39H70NO8P-H] 1-): 263.7 Å²

SMILES: CCCCC/C=C\C/C=C\C/C=C\C/C=C\CCCC(=O)OC[C@H](COP(=O)(O)OCCN)OC(=O)CCCCCCC/C=C\C/C=C\CCCCC [PE 20:4_18:2@]
TIMS collisional cross section [2]: 275.6 ± 3.2 Å²

SMILES: CCCCC/C=C\C/C=C\C/C=C\C/C=C\CCCC(=O)OC[C@H](COP(=O)(O)OCCN)OC(=O)CCCCCCC/C=C\C/C=C\CCCCC [PE 20:4_18:2]
TIMS collisional cross section [3]: 272.7 Å²

SMILES: CCCCC/C=C\C/C=C\C/C=C\C/C=C\CCCC(=O)OC[C@H](COP(=O)(O)OCCN)OC(=O)CCCCCCCCCCCCCCCCCCC [PE 20:4_20:0]
TIMS collisional cross section [4]: 281.8 Å²

Now from value to molecule:

TIMS collisional cross section (sample type: Mouse Liver, ion (formula + adduct): [C47H86NO8P-H] 1-): 288 Å²
SMILES: CCCCC/C=C\C/C=C\C/C=C\C/C=C\CCCC(=O)OC[C@H](COP(=O)(O)OCCN)OC(=O)CCCCCCCCCCCCCCCCCCCCC [PE 20:4_22:0]

TIMS collisional cross section (sample type: Mouse Liver, ion (formula + adduct): [C47H74NO8P-H] 1-): 280.6 Å²
SMILES: CC/C=C\C/C=C\C/C=C\C/C=C\C/C=C\C/C=C\CCC(=O)O[C@H](COC(=O)CCC/C=C\C/C=C\C/C=C\C/C=C\CCCCC)COP(=O)(O)OCCN [PE 20:4_22:6]

TIMS collisional cross section (sample type: Human plasma, ion (formula + adduct): [C43H76NO8P-H] 1-): 276.2 Å²
SMILES: CC/C=C\C/C=C\C/C=C\C/C=C\C/C=C\CCCC(=O)OC[C@H](COP(=O)(O)OCCN)OC(=O)CCCCCCCCCCCCCCCCC [PE 20:5@_18:0]

TIMS collisional cross section (sample type: Human plasma, ion (formula + adduct): [C41H72NO8P-H] 1-): 269.4 Å²
TIMS collisional cross section (sample type: Mouse Liver, ion (formula + adduct): [C41H72NO8P-H] 1-): 269.4 Å²
SMILES: CC/C=C\C/C=C\C/C=C\C/C=C\C/C=C\CCCC(=O)OC[C@H](COP(=O)(O)OCCN)OC(=O)CCCCCCCCCCCCCCC [PE 20:5_16:0]

TIMS collisional cross section [2]: 274.5 Å²
TIMS collisional cross section [3]: 273.9 Å²
SMILES: CC/C=C\C/C=C\C/C=C\C/C=C\C/C=C\CCCC(=O)OC[C@H](COP(=O)(O)OCCN)OC(=O)CCCCCCC/C=C\CCCCCCCC [PE 20:5_18:1]

TIMS collisional cross section (sample type: Human plasma, ion (formula + adduct): [C45H82NO8P-H] 1-): 283.6 Å²
TIMS collisional cross section [4]: 283 Å²
SMILES: CCCCC/C=C\C/C=C\C/C=C\C/C=C\CCCCCC(=O)OC[C@H](COP(=O)(O)OCCN)OC(=O)CCCCCCCCCCCCCCCCC [PE 22:4_18:0]

TIMS collisional cross section (sample type: Human plasma, ion (formula + adduct): [C45H76NO8P-H] 1-): 278.4 Å²
SMILES: CC/C=C\C/C=C\C/C=C\C/C=C\C/C=C\C/C=C\CCC(=O)OC[C@H](COP(=O)(O)OCCN)OC(=O)CCCCCCC/C=C\CCCCCCCC [PE 22:6@_18:1]

TIMS collisional cross section (sample type: Mouse Liver, ion (formula + adduct): [C47H72NO8P-H] 1-): 279.4 Å²
SMILES: CC/C=C\C/C=C\C/C=C\C/C=C\C/C=C\C/C=C\CCC(=O)OC[C@H](COP(=O)(O)OCCN)OC(=O)CCC/C=C\C/C=C\C/C=C\C/C=C\C/C=C\CC [PE 22:6@_20:5]

TIMS collisional cross section (sample type: Mouse Liver, ion (formula + adduct): [C41H70NO8P-H] 1-): 268.2 Å²
SMILES: CC/C=C\C/C=C\C/C=C\C/C=C\C/C=C\C/C=C\CCC(=O)OC[C@H](COP(=O)(O)OCCN)OC(=O)CCCCCCCCCCCCC [PE 22:6_14:0]

TIMS collisional cross section (sample type: Mouse Liver, ion (formula + adduct): [C43H72NO8P-H] 1-): 272.7 Å²
SMILES: CC/C=C\C/C=C\C/C=C\C/C=C\C/C=C\C/C=C\CCC(=O)OC[C@H](COP(=O)(O)OCCN)OC(=O)CCCCCCC/C=C\CCCCCC [PE 22:6_16:1]

TIMS collisional cross section (sample type: Mouse Liver, ion (formula + adduct): [C45H76NO8P-H] 1-): 279.5 ± 0.85 Å²
SMILES: CC/C=C\C/C=C\C/C=C\C/C=C\C/C=C\C/C=C\CCC(=O)OC[C@H](COP(=O)(O)OCCN)OC(=O)CCCCCCC/C=C\CCCCCCCC [PE 22:6_18:1]

TIMS collisional cross section (sample type: Mouse Liver, ion (formula + adduct): [C45H74NO8P-H] 1-): 276.6 Å²
SMILES: CC/C=C\C/C=C\C/C=C\C/C=C\C/C=C\C/C=C\CCC(=O)OC[C@H](COP(=O)(O)OCCN)OC(=O)CCCCCCC/C=C\C/C=C\CCCCC [PE 22:6_18:2]

TIMS collisional cross section (sample type: Mouse Liver, ion (formula + adduct): [C47H82NO8P-H] 1-): 287.5 Å²
SMILES: CC/C=C\C/C=C\C/C=C\C/C=C\C/C=C\C/C=C\CCC(=O)OC[C@H](COP(=O)(O)OCCN)OC(=O)CCCCCCCCCCCCCCCCCCC [PE 22:6_20:0]

TIMS collisional cross section (sample type: Mouse Liver, ion (formula + adduct): [C49H74NO8P-H] 1-): 283.9 Å²
SMILES: CC/C=C\C/C=C\C/C=C\C/C=C\C/C=C\C/C=C\CCC(=O)OC[C@H](COP(=O)(O)OCCN)OC(=O)CC/C=C\C/C=C\C/C=C\C/C=C\C/C=C\C/C=C\CC [PE 22:6_22:6]

TIMS collisional cross section (sample type: Human plasma, ion (formula + adduct): [C41H74NO7P+AcO] 1-): 280.1 Å²
SMILES: CC/C=C\C/C=C\C/C=C\C/C=C\C/C=C\CCCC(=O)O[C@H](COCCCCCCCCCCCCCCCC)COP(=O)(O)OCCN [PE O- 16:0@_20:5]

TIMS collisional cross section (sample type: Human plasma, ion (formula + adduct): [C43H76NO7P-H] 1-): 274 Å²
TIMS collisional cross section (sample type: Mouse Liver, ion (formula + adduct): [C43H76NO7P-H] 1-): 273.4 Å²
SMILES: CC/C=C\C/C=C\C/C=C\C/C=C\C/C=C\C/C=C\CCC(=O)O[C@H](COCCCCCCCCCCCCCCCC)COP(=O)(O)OCCN [PE O- 16:0@_22:6]

TIMS collisional cross section (sample type: Human plasma, ion (formula + adduct): [C38H78NO7P+AcO] 1-): 287.3 Å²
SMILES: CCCCCCCCCCCCCCCCCCOC[C@H](COP(=O)(O)OCCN)OC(=O)CCCCCCCCCCCCCC [PE O- 18:0@_15:0]

TIMS collisional cross section (sample type: Human plasma, ion (formula + adduct): [C40H80NO7P+AcO] 1-): 292.4 Å²
SMILES: CCCCCCC/C=C\CCCCCCCC(=O)O[C@H](COCCCCCCCCCCCCCCCCCC)COP(=O)(O)OCCN [PE O- 18:0@_17:1]

TIMS collisional cross section (sample type: Human plasma, ion (formula + adduct): [C42H86NO7P+AcO] 1-): 298 Å²
SMILES: CCCCCCCCCCCCCCCCCCOC[C@H](COP(=O)(O)OCCN)OC(=O)CCCCCCCCCCCCCCCCCC [PE O- 18:0@_19:0]
